The numbers were not newly measured in patent US9573873B2, “Catalytic method for dibenzocycloheptane synthesis and allocolchicinoid synthesis” (UNIVERSITY OF WINDSOR, priority 2014, dated 2017), which cites them from elsewhere.

The conditions of this data set: Phase 2 clinical testing; background statement.

In the case of `COc1cc2c(c(OC)c1OC)-c1ccc(OP(=O)(O)O)cc1[C@@H](NC(C)=O)CC2` [ZD 6126, N-Acetylcolchicinol dihydrogen phosphate], the cardiotoxicity result is recorded as “failed in Phase 2 clinical testing because of this cardiotoxicity”.
